The text below walks through data of the NIST ThermoML archive (doi:10.1021/je400498a).

The nature of data set [1]: Molar enthalpy of transition or fusion. The note with it: Crystal; DSC.
The conditions of data set [2]: for vapor or sublimation pressure: 298.15 K, Gas chromatography.

Numbers after ± are expanded uncertainties.

For orientation: vapor or sublimation pressure means the pressure of vapour in equilibrium with the condensed phase. Take `NC12CC3CC(CC(C3)C1)C2` [tricyclo(3.3.1.1:3,7)decan-1-amine]: in data set [1], the “Molar enthalpy of transition or fusion” value came to 7.3 ± 0.5 kJ/mol. In addition, the “vapor or sublimation pressure” value is reported as 0.0115 ± 0.0043 kPa in data set [2] (Crystal) and 0.021 ± 0.003 kPa in data set [2] (Liquid). Moreover, the Normal melting temperature in data set [2] (Crystal, DTA) was 204.2 ± 1.8 °C.
With `CCCCCCCCCCCCN` [1-dodecanamine], the “vapor or sublimation pressure” value in data set [2] (Crystal) is recorded as 0.0016 ± 0.0002 kPa.
For `CC(C)(N)Cc1ccccc1` [2-methyl-1-phenylpropan-2-amine], in data set [2] (Liquid), the “vapor or sublimation pressure” value is reported as 0.035 ± 0.008 kPa.
On the same count and under the same terms, with `CC(N)C12CC3CC(CC(C3)C1)C2` (centres undefined) [1-(adamantan-1-yl)ethan-1-amine] the figure was 0.003 ± 0.002 kPa.
For `CCCCCCCCCCCCCCN` [1-tetradecanamine], the “vapor or sublimation pressure” value in data set [2] (Crystal) is recorded as 0.00012 ± 8e-05 kPa.
In the case of `N[C@@H]1C[C@H]1c1ccccc1` (relative stereo) [trans-2-phenylcyclopropylamine], in data set [2] (Liquid), the “vapor or sublimation pressure” value is 0.028 ± 0.01 kPa.
